{
  "source": "patent US7897369B2",
  "about": "“Isoprenoid wax ester synthases, isoprenoid acyl CoA-synthetases, and uses thereof” (Regents of the University of Minnesota, priority 2007, dated 2011)",
  "key": {"[1]": {"tested_on": "WS1", "test": "DGAT assay (TLC)", "format": "biochemical, Marinobacter hydrocarbonoclasticus DSM 8798", "details": "oleoyl-CoA as acyl donor, dipalmitoyl-glycerol as acyl acceptor", "text": "(§1) TLC plates were stained with either iodine vapor or anisaldehyde solution as described earlier (Jork et al., 1990. Thin-layer chromatography reagents and detection methods, vol. 1a. Physical and chemical detection methods: fundamentals, reagents. VHC, Weinheim, Germany). Palmitoyl palmitate and triolein were used as WE and TAG reference compounds, respectively."}, "[2]": {"target": "T1, WS2 (Marinobacter nauticus, UniProt A3RE51)", "T1 sequence (A3RE51 entry or part of it)": "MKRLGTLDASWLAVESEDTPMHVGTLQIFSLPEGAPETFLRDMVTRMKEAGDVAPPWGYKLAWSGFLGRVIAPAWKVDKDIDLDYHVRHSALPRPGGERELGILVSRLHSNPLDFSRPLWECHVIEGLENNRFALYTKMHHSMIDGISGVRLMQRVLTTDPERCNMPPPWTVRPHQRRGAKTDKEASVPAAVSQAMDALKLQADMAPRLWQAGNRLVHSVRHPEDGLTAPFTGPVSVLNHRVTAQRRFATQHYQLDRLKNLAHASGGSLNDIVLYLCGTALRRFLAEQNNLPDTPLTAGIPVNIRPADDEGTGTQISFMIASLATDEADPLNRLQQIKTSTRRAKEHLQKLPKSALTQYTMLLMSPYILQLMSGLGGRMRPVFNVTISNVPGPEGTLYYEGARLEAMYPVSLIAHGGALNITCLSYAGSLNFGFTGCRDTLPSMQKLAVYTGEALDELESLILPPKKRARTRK", "test": "DGAT assay (TLC)", "format": "biochemical, Marinobacter hydrocarbonoclasticus DSM 8798", "details": "oleoyl-CoA as acyl donor, dipalmitoyl-glycerol as acyl acceptor", "text": "as §1"}, "[3]": {"target": "T1, WS2", "test": "WS2 kinetics on ethanol and oleoyl-CoA (DTNB)", "format": "biochemical, Marinobacter hydrocarbonoclasticus", "protocol": "[…] Assay reactions were pre-incubated at 37° C. for 5 minutes before the reactions were started by the addition of enzyme."}, "[4]": {"target": "T1, WS2", "test": "Coupled enzyme assay, WS substrate profile (TLC)", "format": "biochemical, Marinobacter hydrocarbonoclasticus DSM 8798", "set-up": "key to WE formation (spot intensity of wax ester products on TLC), WS2, C16 / WE formation (spot intensity of wax ester products on TLC), WS2, Phytol / WE formation (spot intensity of wax ester products on TLC), WS2, Farnesol / WE formation (spot intensity of wax ester products on TLC), WS2, C10 / WE formation (spot intensity of wax ester products on TLC), WS2, C12 / WE formation (spot intensity of wax ester products on TLC), WS2, C14: no activity (−); ranging from no activity (−) to most active (+++); ranging from no activity (−) to most active (+++); most active (+++)", "protocol": "(§2) Stock solutions of various substrates were prepared in 50 mM Tris-HCl buffer (pH 8) containing 1% gum arabic, 12.5 μg bovine serum albumin ml^−1, 0.1% taurocholate, and either 100 mM fatty acid, isoprenoid acid, fatty alcohol, or isoprenoid alcohol. Stock solutions were sonicated to disperse the substrates. Substrate profiles of the three WS were tested using coupled enzyme in vitro reactions in which the CoA synthetases Acs1 and Acs2 are added to synthesize the CoA-activated fatty acid phytanic acid substrates from corresponding acid precursors for the WS reactions. Assays were carried out in 500-μl reactions containing in 50 mM Tris-HCl buffer (pH 8.0), 12.5 μl of each acid, and alcohol substrate stock solution (final concentrations of each substrate of 250 μM), 10 mM MgCl2, 10 mM CoASH, 10 mM ATP, 5 mM TCEP, 0.1 U of inorganic pyrophosphatase, 0.25 μg of Acs1 and Acs2 CoA synthetase, and 0.5 μg of WS to be tested. Assays were incubated at 37° C. overnight before thin-layer chromatography (TLC) analysis of the reaction products.\nas §1, with “In vitro WS assay samples were extracted with 500 μl of chloroformmethanol (1:1 [vol/vol]), and extracts were analyzed by TLC with Whatman normal phase silica gel 60 plates and developed using hexane-diethyl ether-acetic acid (90:10:1 [vol/vol/vol]). TLC” for “TLC”"}, "[5]": {"target": "T2, Acinetobacter WS/DGAT (Acinetobacter baylyi, UniProt Q8GGG1)", "T2 construct": "His6 (N); made in house", "T2 sequence (Q8GGG1 1-458)": "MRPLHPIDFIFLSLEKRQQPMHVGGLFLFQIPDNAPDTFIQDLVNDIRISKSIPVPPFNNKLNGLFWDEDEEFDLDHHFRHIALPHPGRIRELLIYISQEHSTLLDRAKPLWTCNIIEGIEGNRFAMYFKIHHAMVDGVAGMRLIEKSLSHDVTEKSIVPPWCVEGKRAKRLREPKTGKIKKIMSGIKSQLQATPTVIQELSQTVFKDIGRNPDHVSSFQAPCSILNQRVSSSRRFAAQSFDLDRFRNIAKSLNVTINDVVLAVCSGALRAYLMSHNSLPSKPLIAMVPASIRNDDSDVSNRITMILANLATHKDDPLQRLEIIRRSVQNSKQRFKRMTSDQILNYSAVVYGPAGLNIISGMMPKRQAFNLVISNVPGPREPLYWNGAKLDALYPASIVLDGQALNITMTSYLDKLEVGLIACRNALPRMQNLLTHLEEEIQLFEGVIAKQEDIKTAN", "test": "Coupled enzyme assay (TLC)", "format": "biochemical, Acinetobacter baylyi ADP1", "details": "phytanic acid and phytol as substrates", "protocol": "as §2\n(§3) In vitro WS assay samples were extracted with 500 μl of chloroformmethanol (1:1 [vol/vol]), and extracts were analyzed by TLC with Whatman normal phase silica gel 60 plates and developed using hexane-diethyl ether-acetic acid (90:10:1 [vol/vol/vol]). […]"}, "[6]": {"tested_on": "FadD", "test": "CoA synthetase assay (HPLC, LC-MS)", "format": "biochemical, Pseudomonas putida", "details": "purified recombinant protein"}, "[7]": {"tested_on": "WS3", "test": "Coupled enzyme assay, WS substrate profile (TLC)", "format": "biochemical, Marinobacter hydrocarbonoclasticus DSM 8798", "details": "coupled reaction; palmitic acid with hexadecanol, phytanic acid with phytol", "protocol": "as §2, §3"}, "[8]": {"tested_on": "Acs2", "test": "CoA synthetase assay (HPLC, LC-MS)", "format": "biochemical, Marinobacter hydrocarbonoclasticus DSM 8798", "details": "10 mM acid, 20 min at 37° C.", "protocol": "(§4) In vitro reactions were performed as described previously (Trivedi et al., 2004, Nature, 428:441-445) with some modifications. CoA synthetase assays were carried out in 250-μl reaction volumes containing 50 mM Tris-HCl buffer (pH 7.5), 0.1% Triton X-100, 10 mM MgCl2, 5 mM TCEP, 0.1 U of inorganic pyrophosphatase, and as substrates 10 mM phytanic or fatty acids, 10 mM reduced coenzyme A (CoASH), 10 mM ATP, and 0.5 μg of purified Acs (either 1, 2, 3, or 4) protein. The reactions were incubated for 20 min at 37° C. and stopped with 25 μl of 5% acetic acid, followed by HPLC analysis of the reaction products.\n(§5) CoA-synthetase assay samples (25 μl) were resolved on an Agilent 1100 HPLC (Agilent Technologies, Palo Alto, Calif.) equipped with a photodiode array detector set to 259 nm. Samples were separated on a reversed-phase Eclipse XDB-C8 column (Agilent Technologies) at a flow rate of 1 ml min^−1. Solvent A consisted of 20 mM ammonium acetate (pH 5.4) in HPLC-grade water, and solvent B contained acetonitrile and methanol (85:15 [vol/vol]). Acyl-CoA and phytanoyl-CoA products were eluted using the following conditions: solvent A-solvent B at 65:35 from 0 to 5 min, followed by a gradient from solvent A-solvent B at 65:35 to 100% solvent B in 30 min. Liquid chromatography-mass spectrometry (LC-MS) analyses of reaction products were done with an LCQ mass spectrophotometer equipped with an electrospray ionization source (ESI) (Thermo Finnigan). Mass fragmentation spectra were monitored in a mass range of m/z 400 to 1,500 with a negative ESI interface."}, "[9]": {"tested_on": "Acs4", "test": "CoA synthetase assay (HPLC, LC-MS)", "format": "biochemical, Marinobacter hydrocarbonoclasticus DSM 8798", "details": "10 mM acid, 20 min at 37° C.", "protocol": "as §4, §5"}, "[10]": {"tested_on": "Acs1", "test": "CoA synthetase assay (HPLC, LC-MS)", "format": "biochemical, Marinobacter hydrocarbonoclasticus DSM 8798", "details": "10 mM acid, 20 min at 37° C.", "protocol": "as §4, §5"}, "[11]": {"tested_on": "Acs3", "test": "CoA synthetase assay (HPLC, LC-MS)", "format": "biochemical, Marinobacter hydrocarbonoclasticus DSM 8798", "details": "10 mM acid, 20 min at 37° C.", "protocol": "as §4, §5"}, "[12]": {"tested_on": "WS1", "test": "Coupled enzyme assay, WS substrate profile (TLC)", "format": "biochemical, Marinobacter hydrocarbonoclasticus DSM 8798", "set-up": "key to WE formation (spot intensity of wax ester products on TLC), WS1, C10 / WE formation (spot intensity of wax ester products on TLC), WS1, C12 / WE formation (spot intensity of wax ester products on TLC), WS1, C14 / WE formation (spot intensity of wax ester products on TLC), WS1, C16 / WE formation (spot intensity of wax ester products on TLC), WS1, Phytol / WE formation (spot intensity of wax ester products on TLC), WS1, Farnesol: no activity (−); ranging from no activity (−) to most active (+++); ranging from no activity (−) to most active (+++); most active (+++)", "protocol": "as §2\nas §1, with “In vitro WS assay samples were extracted with 500 μl of chloroformmethanol (1:1 [vol/vol]), and extracts were analyzed by TLC with Whatman normal phase silica gel 60 plates and developed using hexane-diethyl ether-acetic acid (90:10:1 [vol/vol/vol]). TLC” for “TLC”"}, "[13]": {"details": "alcohol farnesol, 12 h at 37° C., each substrate 250 μM"}, "[14]": {"details": "alcohol phytol, 12 h at 37° C., each substrate 250 μM"}, "[15]": {"details": "coupled reaction, palmitic acid with hexadecanol, phytanic acid with phytol, phytanoyl-CoA with the alcohols named in the value"}, "[16]": {"details": "fatty alcohol C10, 12 h at 37° C., each substrate 250 μM"}, "[17]": {"details": "fatty alcohol C12, 12 h at 37° C., each substrate 250 μM"}, "[18]": {"details": "fatty alcohol C14, 12 h at 37° C., each substrate 250 μM"}, "[19]": {"details": "fatty alcohol C16, 12 h at 37° C., each substrate 250 μM"}},
  "note": "“Also recorded” adds a separate entry of the source.",
  "data": [
    {"smiles": "CCCCCCCC/C=C\\CCCCCCCC(=O)SCCNC(=O)CCNC(=O)[C@H](O)C(C)(C)COP(=O)(O)OP(=O)(O)OC[C@H]1O[C@@H](n2cnc3c(N)ncnc32)[C@H](O)[C@@H]1OP(=O)(O)O", "note": "[Oleoyl-CoA]", "values": [
      {"measurement": "DGAT activity of WS1 (TAG product on TLC)", "setting": "[1]", "result": "TAG products were only detected for WS1; also recorded: Only WS1 shows DGAT activity"},
      {"measurement": "DGAT activity of WS2 (TAG product on TLC)", "setting": "[2]", "result": "did not show DGAT activity"},
      {"measurement": "Kcat of WS2", "setting": "[3]; steady state on ethanol and oleoyl-CoA", "result": 59, "unit": "s⁻¹"},
      {"measurement": "Vmax of WS2", "setting": "[3]; steady state, varied substrate 10 μM-250 μM, other substrate (oleoyl-CoA or ethanol) 500 μM", "result": "1667 μmol (mg/min)^−1"}
    ]},
    {"smiles": "CC(C)CCCC(C)CCCC(C)CCCC(C)CC(=O)O", "note": "(stereo not shown) [Phytanic acid]", "values": [
      {"measurement": "WE formation (spot intensity of wax ester products on TLC), WS2, Farnesol", "setting": "[4]; [13]", "result": "++"},
      {"measurement": "WE formation (spot intensity of wax ester products on TLC), WS2, Phytol", "setting": "[4]; [14]", "result": "++"},
      {"measurement": "WE product formation by WS2 (TLC), in words", "setting": "[4]; [15]", "result": "Products were observed"},
      {"measurement": "WE formation (spot intensity of wax ester products on TLC), WS2, C10", "setting": "[4]; [16]", "result": "−"},
      {"measurement": "WE formation (spot intensity of wax ester products on TLC), WS2, C12", "setting": "[4]; [17]", "result": "−"},
      {"measurement": "WE formation (spot intensity of wax ester products on TLC), WS2, C14", "setting": "[4]; [18]", "result": "−"},
      {"measurement": "WE formation (spot intensity of wax ester products on TLC), WS2, C16", "setting": "[4]; [19]", "result": "−"},
      {"measurement": "Isoprenoid WE formation by Acinetobacter WS/DGAT", "setting": "[5]", "result": "did not show isoprenoid WE formation"},
      {"measurement": "CoA activation by P. putida FadD", "setting": "[6]", "result": "does not synthesize phytanoyl-CoA; also recorded: did not activate phytanic acid"},
      {"measurement": "WE product formation by WS3 (TLC), in words", "setting": "[7]", "result": "no products were observed"},
      {"measurement": "CoA activation by Acs2", "setting": "[8]", "result": "converted phytanic acid into phytanoyl-CoA"},
      {"measurement": "CoA activation by Acs4", "setting": "[9]", "result": "Only Acs2 converted phytanic acid into phytanoyl-CoA"},
      {"measurement": "CoA activation by Acs1", "setting": "[10]", "result": "Only Acs2 converted phytanic acid into phytanoyl-CoA"},
      {"measurement": "CoA activation by Acs3", "setting": "[11]", "result": "Only Acs2 converted phytanic acid into phytanoyl-CoA"},
      {"measurement": "WE formation (spot intensity of wax ester products on TLC), WS1, Farnesol", "setting": "[12]; [13]", "result": "+"},
      {"measurement": "WE formation (spot intensity of wax ester products on TLC), WS1, Phytol", "setting": "[12]; [14]", "result": "+"},
      {"measurement": "WE product formation by WS1 (TLC), in words", "setting": "[12]; [15]", "result": "Products were observed"},
      {"measurement": "WE formation (spot intensity of wax ester products on TLC), WS1, C10", "setting": "[12]; [16]", "result": "−"},
      {"measurement": "WE formation (spot intensity of wax ester products on TLC), WS1, C12", "setting": "[12]; [17]", "result": "−"},
      {"measurement": "WE formation (spot intensity of wax ester products on TLC), WS1, C14", "setting": "[12]; [18]", "result": "−"},
      {"measurement": "WE formation (spot intensity of wax ester products on TLC), WS1, C16", "setting": "[12]; [19]", "result": "−"}
    ]}
  ]
}
